Assay results as given in US8415469B2, “Compounds and methods for kinase modulation, and indications therefor” (Plexxikon Inc., priority 2005, dated 2013).
pIC50: −log10 of the molar value.

Experiments:
Type in all cases: biochemical
[1] = biological target: T1, Stk6 (Homo sapiens, UniProt O14965); experiment: Z'-Lyte FRET kinase assay (Invitrogen), Stk6; details: read-out: IC50, activity toward kinase Stk6
T1 construct: purchased Invitrogen (Carlsbad, Calif.), screening service
T1 sequence (O14965 1-403): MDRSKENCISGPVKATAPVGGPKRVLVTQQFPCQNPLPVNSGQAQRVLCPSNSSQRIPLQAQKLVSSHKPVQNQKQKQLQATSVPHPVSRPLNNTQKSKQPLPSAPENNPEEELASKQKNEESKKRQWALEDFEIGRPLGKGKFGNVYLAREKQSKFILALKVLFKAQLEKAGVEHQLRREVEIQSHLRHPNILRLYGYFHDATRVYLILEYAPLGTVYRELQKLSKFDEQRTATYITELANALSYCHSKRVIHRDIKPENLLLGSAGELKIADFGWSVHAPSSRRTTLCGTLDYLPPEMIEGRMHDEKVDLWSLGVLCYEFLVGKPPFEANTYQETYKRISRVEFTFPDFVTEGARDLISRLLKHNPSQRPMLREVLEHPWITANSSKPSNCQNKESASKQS

[2] = biological target: T2, Kdr (Homo sapiens, UniProt P35968); experiment: Z'-Lyte FRET kinase assay (Invitrogen), Kdr; details: read-out: IC50, activity toward kinase Kdr
T2 construct: purchased Invitrogen (assay run by Invitrogen)

[3] = biological target: T3, MAP2K1 (Homo sapiens, UniProt Q02750); experiment: Z'-Lyte FRET kinase assay (Invitrogen), MAP2K1; details: read-out: IC50, activity toward kinase MAP2K1
T3 construct: purchased Invitrogen (assay run by Invitrogen)
From the text: For example, direct radiometric, indirect FRET or AlphaScreen assays may be used to assess the level of phosphorylation of a substrate in the presence of test compounds in order to determine the inhibitory affect of the compound on the kinase. […] For these assays, compounds of the invention were screened by Invitrogen using Z′-Lyte™ kinase assay.
Briefly, the Invitrogen kinase assay involves use of a specific peptide substrate optimized for each kinase, containing a fluorophore at each end that make up the FRET pair. The peptide sensitivity to proteolytic cleavage depends on phosphorylation of the peptide. Non-phosphorylated peptide is cleaved by a protease while peptide phosphorylated by the kinase is not cleaved. Cleavage of the peptide disrupts the FRET between the donor (coumarin) and acceptor (fluorescein) fluorophores, resulting in an increase in the ratio of donor emission to acceptor emission. The emission ratio of coumarin to fluorescein is used to assess the reaction progress. […] Thus, the assay involves a kinase reaction in the presence of varying concentrations of a given compound, a development reaction with site specific protease, and detection of the fluorescent emission ratio of coumarin and fluorscein. […] Reaction conditions for each kinase are determined to provide optimal reaction times, incubation temperature, kinase and ATP concentrations. Test samples are made up in 1× kinase buffer (50 mM HEPES pH 7.5, 50 mM MgCl2, 5 mM EGTA, 0.05% BRIJ-35) and compound at desired concentration prepared in DMSO such that the final DMSO is 1%. […] All kinase except for MAP2K1 were at 10 μM ATP in the kinase reaction, while MAP2K1 was at 100 μM. Samples are mixed and the kinase reaction is incubated 1 hour at room temperature, after which 5 μl of development solution is added and mixed. After incubation for another 1 hour at room temperature, 5 μl of stop reagent is added to each sample and mixed. The fluorescence signals are measured to determine the emission ratio.

[4] = biological target: T4, IKK beta (Homo sapiens, UniProt O14920); experiment: AlphaScreen kinase assay, IKK beta; details: read-out: IC50, activity toward kinase IKK beta
T4 sequence (O14920 1-756): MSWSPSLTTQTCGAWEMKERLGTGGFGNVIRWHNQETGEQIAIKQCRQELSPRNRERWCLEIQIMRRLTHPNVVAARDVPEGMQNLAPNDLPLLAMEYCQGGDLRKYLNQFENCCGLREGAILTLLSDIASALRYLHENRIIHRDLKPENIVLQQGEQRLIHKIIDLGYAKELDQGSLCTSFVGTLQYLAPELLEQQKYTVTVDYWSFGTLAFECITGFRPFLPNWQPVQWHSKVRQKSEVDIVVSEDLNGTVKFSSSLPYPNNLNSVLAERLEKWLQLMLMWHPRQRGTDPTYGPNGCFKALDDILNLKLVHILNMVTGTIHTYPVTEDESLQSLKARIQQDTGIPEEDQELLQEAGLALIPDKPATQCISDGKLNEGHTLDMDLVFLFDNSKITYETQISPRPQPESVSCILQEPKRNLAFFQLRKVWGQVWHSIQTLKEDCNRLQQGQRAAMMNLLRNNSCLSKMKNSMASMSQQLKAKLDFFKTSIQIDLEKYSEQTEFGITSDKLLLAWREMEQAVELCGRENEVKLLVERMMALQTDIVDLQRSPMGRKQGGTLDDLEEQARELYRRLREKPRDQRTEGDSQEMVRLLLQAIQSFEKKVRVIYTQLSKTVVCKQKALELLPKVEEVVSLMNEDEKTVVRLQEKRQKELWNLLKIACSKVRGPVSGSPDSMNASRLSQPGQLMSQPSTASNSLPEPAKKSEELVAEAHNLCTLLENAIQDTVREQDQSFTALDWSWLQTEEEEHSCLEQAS
From the text: (§2) AlphaScreen assay was used to screen additional kinases. The assay is similarly dependent on the phosphorylation of a peptide substrate. In this assay, an antibody that recognizes phosphorylated substrate is bound to an acceptor bead. The peptide substrate is attached to biotin, which binds to a donor head that contains streptavidin. Thus phosphorylated substrate is bound by antibody and streptavidin, bringing the donor and acceptor heads into close proximity when kinase is not inhibited. The donor produces singlet oxygen which results in emission from the acceptor when they are in close proximity. Conversely, when kinase is inhibited, the donor and acceptor beads are not associated and the emission from the acceptor is reduced.
(§3) AlphaScreen assays were done using compounds dissolved in DMSO to a concentration of 20 mM. The compounds were diluted accordingly to the desired final concentrations in each sample well, using 1:3 serial dilution for a total of 8 concentration points. Plates were prepared such that each kinase reaction is 20 μl in 1× kinase buffer, 5% DMSO and 10 μM ATP. After incubation of the kinase reaction for 1 hour at room temperature, 5 μl of donor beads in stop buffer (50 mM EDTA in 1× kinase buffer) was added, the sample was mixed and incubated for 20 minutes at room temperature before adding 5 μl of acceptor beads in stop buffer. The samples were incubated for 60 minutes at room temperature and the signal per well was read on AlphaQuest reader.

[5] = biological target: T5, Irak4 (Homo sapiens, UniProt Q9NWZ3); experiment: Z'-Lyte FRET kinase assay (Invitrogen), Irak4; details: read-out: IC50, activity toward kinase Irak4
T5 construct: purchased Invitrogen (assay run by Invitrogen)
T5 sequence (Q9NWZ3 1-460): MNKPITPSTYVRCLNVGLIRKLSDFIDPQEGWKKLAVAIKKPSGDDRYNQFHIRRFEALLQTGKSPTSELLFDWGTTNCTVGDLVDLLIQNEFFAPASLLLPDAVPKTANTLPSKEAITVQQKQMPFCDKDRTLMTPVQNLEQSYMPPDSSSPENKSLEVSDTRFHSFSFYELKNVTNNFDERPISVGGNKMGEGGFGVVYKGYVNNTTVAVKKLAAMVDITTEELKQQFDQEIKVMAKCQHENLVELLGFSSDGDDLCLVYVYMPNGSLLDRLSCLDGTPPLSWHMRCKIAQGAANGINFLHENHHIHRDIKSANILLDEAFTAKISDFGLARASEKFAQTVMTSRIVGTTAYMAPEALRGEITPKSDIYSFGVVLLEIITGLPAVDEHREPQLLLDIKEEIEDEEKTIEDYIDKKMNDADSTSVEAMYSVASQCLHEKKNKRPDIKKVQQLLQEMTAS
From the text: The effect of potential modulators of kinase activity can be measured in a variety of different assays known in the art. For example, direct radiometric, indirect FRET or AlphaScreen assays may be used to assess the level of phosphorylation of a substrate in the presence of test compounds in order to determine the inhibitory affect of the compound on the kinase. Invitrogen (Carlsbad, Calif.) uses a FRET based assay for Btk, EGFR, EphB2, Flt3, lrak4, Kdr, MAP2K1, MAPKAPK2, PDGFRB, PKC theta, Stk6 and Yes. For these assays, compounds of the invention were screened by Invitrogen using Z′-Lyte™ kinase assay.
Briefly, the Invitrogen kinase assay involves use of a specific peptide substrate optimized for each kinase, containing a fluorophore at each end that make up the FRET pair. The peptide sensitivity to proteolytic cleavage depends on phosphorylation of the peptide. Non-phosphorylated peptide is cleaved by a protease while peptide phosphorylated by the kinase is not cleaved. Cleavage of the peptide disrupts the FRET between the donor (coumarin) and acceptor (fluorescein) fluorophores, resulting in an increase in the ratio of donor emission to acceptor emission. The emission ratio of coumarin to fluorescein is used to assess the reaction progress. The extent of phosphorylation is determined from the emission ratio, which is low when the kinase is active (phosphorylated peptide is not cleaved, FRET pair connected) or higher for inhibited kinase (non-phosphorylated peptide is cleaved, FRET pair separated). Thus, the assay involves a kinase reaction in the presence of varying concentrations of a given compound, a development reaction with site specific protease, and detection of the fluorescent emission ratio of coumarin and fluorscein. […] Reaction conditions for each kinase are determined to provide optimal reaction times, incubation temperature, kinase and ATP concentrations. Test samples are made up in 1× kinase buffer (50 mM HEPES pH 7.5, 50 mM MgCl2, 5 mM EGTA, 0.05% BRIJ-35) and compound at desired concentration prepared in DMSO such that the final DMSO is 1%. […] Typically, assay plates are prepared to 10 μl final volume per sample, adding 2.5 μl of compound at 4× the desired concentration in 4% DMSO (serial dilution of compound provides concentration curve), 5 μl of the desired kinase mixed with Z′-LYTE™ peptide substrate (2× in 2× kinase buffer, final peptide at 2 μM), and 2.5 μl of 4×ATP solution. All kinase except for MAP2K1 were at 10 μM ATP in the kinase reaction, while MAP2K1 was at 100 μM. Samples are mixed and the kinase reaction is incubated 1 hour at room temperature, after which 5 μl of development solution is added and mixed. After incubation for another 1 hour at room temperature, 5 μl of stop reagent is added to each sample and mixed. The fluorescence signals are measured to determine the emission ratio.

[6] = biological target: T6, Kit (Homo sapiens, UniProt P10721); experiment: AlphaScreen kinase assay, Kit; details: read-out: IC50, activity toward kinase Kit
T6 construct: P1332.N6 BI PTP KIT M552-K948-X COD; His6 (N); made in house; host or cells: E. coli (PTP1B co-expressed)

[7] = biological target: T7, p38 (Homo sapiens, UniProt Q16539); experiment: AlphaScreen kinase assay, p38; details: read-out: IC50, activity toward kinase p38
T7 construct: P4292.pET15S P38A M1-S360-X MKK6DD; His6 with thrombin site (N); made in house
From the text: as §2, §3

[8] = biological target: T8, FGFR1 (Homo sapiens, UniProt P11362, C488A/C584S); experiment: AlphaScreen kinase assay, FGFR1; details: read-out: IC50, activity toward kinase FGFR
T8 construct: P1351.pET N6 BI-PTP FGFR A458-E765-X C488A, C584S; made in house; host or cells: E. coli (PTP1B co-expressed)

[9] = biological target: T9, Flt4 (Homo sapiens, UniProt P35916); experiment: AlphaScreen kinase assay, Flt4; details: read-out: IC50, activity toward kinase Flt4
T9 construct: purchased ProQinase GmbH (Freiburg, Germany)
Method in brief: (§1)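 Bead-proximity format: phosphopeptide links anti-phospho antibody acceptor beads to streptavidin donor beads via biotin tag. Compounds were serially diluted 1:3 (8 points) from 20 mM stocks in DMSO.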

[10] = biological target: T10, Flt1 (Homo sapiens, UniProt P17948); experiment: AlphaScreen kinase assay, Flt1; details: read-out: IC50, activity toward kinase Flt1
T10 construct: P1826.pETN6 BI-PTP FLT1 M799-D1165-X WT; His6 (N); made in house; host or cells: E. coli (PTP1B co-expressed)
T10 sequence (P17948 with tags, fused parts or gaps): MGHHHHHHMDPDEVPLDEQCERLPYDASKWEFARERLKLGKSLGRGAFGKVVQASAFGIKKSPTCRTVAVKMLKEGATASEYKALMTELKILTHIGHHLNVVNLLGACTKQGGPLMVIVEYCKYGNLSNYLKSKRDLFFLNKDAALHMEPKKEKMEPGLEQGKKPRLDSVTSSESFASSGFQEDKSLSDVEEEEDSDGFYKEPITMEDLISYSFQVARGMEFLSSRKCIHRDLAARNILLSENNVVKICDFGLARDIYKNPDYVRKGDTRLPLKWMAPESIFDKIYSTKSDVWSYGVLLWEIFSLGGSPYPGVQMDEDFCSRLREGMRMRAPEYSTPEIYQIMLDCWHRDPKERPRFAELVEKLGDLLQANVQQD

[11] = biological target: T11, Abl (Homo sapiens, UniProt P00519); experiment: AlphaScreen kinase assay, Abl; details: read-out: activity toward kinase Abl, IC50
T11 construct: P1121. pET-SPEC BI-PTP Abl G227-V515-X; His6 (N); made in house; host or cells: E. coli (PTP1B co-expressed)
T11 sequence (P00519 with tags, fused parts or gaps): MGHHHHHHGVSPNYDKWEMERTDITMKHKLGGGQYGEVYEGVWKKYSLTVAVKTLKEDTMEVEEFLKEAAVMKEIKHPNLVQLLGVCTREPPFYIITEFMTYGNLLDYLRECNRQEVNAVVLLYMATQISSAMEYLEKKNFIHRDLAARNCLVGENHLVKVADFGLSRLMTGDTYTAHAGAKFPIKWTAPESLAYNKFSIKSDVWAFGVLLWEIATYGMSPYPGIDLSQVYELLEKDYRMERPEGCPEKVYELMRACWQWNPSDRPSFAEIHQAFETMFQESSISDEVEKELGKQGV
Method in brief: as §1

[12] = biological target: T12, Ret (Homo sapiens, UniProt P07949); experiment: AlphaScreen kinase assay, Ret; details: read-out: IC50, activity toward kinase Ret
T12 construct: P1378.pET-SF BI-PTP RET H661-R1012 HIS; made in house
T12 sequence (P07949 with tags, fused parts or gaps): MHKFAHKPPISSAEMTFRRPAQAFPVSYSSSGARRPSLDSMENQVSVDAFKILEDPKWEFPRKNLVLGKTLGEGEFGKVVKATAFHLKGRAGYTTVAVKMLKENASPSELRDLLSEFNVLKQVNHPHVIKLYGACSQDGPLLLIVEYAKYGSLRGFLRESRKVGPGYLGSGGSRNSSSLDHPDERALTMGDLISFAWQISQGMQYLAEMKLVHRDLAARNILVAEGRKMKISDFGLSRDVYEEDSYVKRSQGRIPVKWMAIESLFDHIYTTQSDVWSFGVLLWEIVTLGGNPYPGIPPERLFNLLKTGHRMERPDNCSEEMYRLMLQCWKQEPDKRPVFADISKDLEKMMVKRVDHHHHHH

Measured: pIC50

T7 sequence (Q16539 with tags, fused parts or gaps): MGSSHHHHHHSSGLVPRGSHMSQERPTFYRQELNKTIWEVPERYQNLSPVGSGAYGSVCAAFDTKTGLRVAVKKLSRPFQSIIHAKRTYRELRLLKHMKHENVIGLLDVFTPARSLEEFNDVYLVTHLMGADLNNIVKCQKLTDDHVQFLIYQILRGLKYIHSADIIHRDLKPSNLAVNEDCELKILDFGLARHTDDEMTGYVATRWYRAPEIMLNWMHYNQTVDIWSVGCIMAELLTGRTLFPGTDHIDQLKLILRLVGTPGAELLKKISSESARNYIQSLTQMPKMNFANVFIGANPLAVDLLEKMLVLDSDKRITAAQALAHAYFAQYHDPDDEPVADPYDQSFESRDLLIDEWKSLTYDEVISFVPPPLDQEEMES
T2 sequence (P35968 20-1356): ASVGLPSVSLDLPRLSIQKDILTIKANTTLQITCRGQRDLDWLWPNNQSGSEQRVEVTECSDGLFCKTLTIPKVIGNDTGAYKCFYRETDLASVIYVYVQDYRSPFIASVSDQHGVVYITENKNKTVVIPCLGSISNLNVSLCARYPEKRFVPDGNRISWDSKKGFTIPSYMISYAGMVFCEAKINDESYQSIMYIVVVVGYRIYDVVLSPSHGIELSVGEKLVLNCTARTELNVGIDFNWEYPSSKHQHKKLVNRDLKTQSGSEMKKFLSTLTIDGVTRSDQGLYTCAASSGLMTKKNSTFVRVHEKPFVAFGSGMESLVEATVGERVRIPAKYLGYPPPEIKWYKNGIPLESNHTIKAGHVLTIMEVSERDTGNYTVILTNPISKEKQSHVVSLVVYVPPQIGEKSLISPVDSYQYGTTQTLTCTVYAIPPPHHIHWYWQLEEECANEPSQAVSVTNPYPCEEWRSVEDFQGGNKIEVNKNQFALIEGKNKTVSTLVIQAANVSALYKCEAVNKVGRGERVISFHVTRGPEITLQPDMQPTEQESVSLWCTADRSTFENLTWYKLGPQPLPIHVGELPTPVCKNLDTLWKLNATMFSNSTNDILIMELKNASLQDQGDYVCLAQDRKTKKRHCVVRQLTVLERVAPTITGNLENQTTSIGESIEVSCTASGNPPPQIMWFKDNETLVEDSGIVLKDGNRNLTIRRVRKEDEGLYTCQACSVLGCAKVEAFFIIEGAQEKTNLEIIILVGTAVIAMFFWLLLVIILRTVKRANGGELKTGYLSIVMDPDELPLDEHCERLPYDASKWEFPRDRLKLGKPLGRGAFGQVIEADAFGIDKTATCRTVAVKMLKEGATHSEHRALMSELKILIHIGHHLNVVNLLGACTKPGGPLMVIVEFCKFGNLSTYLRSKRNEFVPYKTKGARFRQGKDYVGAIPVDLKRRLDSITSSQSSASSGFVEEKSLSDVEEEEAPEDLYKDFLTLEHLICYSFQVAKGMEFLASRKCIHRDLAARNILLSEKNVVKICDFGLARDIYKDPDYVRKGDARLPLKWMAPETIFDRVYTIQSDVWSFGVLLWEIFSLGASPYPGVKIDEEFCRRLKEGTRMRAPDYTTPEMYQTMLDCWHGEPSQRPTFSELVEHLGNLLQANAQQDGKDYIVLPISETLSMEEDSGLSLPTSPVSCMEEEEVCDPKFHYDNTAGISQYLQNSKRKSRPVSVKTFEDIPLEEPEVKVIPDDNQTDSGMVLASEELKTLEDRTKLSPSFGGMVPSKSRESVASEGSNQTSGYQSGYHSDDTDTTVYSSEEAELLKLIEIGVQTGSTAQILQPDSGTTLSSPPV
T6 sequence (P10721 with tags, fused parts or gaps): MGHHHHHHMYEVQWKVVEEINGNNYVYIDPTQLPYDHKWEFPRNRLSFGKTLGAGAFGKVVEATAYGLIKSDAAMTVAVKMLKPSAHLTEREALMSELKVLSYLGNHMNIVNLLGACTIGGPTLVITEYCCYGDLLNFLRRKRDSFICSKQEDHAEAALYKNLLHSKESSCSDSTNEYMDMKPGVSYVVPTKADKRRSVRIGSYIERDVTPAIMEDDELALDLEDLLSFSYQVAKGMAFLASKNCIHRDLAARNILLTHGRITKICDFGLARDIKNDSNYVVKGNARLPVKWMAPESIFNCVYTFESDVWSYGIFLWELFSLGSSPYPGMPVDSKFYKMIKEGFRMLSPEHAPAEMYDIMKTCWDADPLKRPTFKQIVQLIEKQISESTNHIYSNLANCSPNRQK
T8 sequence (P11362 458-765 C488A/C584S): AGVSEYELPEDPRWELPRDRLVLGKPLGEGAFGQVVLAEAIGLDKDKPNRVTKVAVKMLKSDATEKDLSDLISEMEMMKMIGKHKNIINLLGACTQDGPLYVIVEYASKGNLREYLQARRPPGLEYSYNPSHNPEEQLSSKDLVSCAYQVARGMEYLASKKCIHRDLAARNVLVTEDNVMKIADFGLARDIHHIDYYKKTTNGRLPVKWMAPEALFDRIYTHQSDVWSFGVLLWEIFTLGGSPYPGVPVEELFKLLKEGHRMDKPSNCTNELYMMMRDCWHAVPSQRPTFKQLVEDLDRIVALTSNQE
T9 sequence (P35916 25-1363): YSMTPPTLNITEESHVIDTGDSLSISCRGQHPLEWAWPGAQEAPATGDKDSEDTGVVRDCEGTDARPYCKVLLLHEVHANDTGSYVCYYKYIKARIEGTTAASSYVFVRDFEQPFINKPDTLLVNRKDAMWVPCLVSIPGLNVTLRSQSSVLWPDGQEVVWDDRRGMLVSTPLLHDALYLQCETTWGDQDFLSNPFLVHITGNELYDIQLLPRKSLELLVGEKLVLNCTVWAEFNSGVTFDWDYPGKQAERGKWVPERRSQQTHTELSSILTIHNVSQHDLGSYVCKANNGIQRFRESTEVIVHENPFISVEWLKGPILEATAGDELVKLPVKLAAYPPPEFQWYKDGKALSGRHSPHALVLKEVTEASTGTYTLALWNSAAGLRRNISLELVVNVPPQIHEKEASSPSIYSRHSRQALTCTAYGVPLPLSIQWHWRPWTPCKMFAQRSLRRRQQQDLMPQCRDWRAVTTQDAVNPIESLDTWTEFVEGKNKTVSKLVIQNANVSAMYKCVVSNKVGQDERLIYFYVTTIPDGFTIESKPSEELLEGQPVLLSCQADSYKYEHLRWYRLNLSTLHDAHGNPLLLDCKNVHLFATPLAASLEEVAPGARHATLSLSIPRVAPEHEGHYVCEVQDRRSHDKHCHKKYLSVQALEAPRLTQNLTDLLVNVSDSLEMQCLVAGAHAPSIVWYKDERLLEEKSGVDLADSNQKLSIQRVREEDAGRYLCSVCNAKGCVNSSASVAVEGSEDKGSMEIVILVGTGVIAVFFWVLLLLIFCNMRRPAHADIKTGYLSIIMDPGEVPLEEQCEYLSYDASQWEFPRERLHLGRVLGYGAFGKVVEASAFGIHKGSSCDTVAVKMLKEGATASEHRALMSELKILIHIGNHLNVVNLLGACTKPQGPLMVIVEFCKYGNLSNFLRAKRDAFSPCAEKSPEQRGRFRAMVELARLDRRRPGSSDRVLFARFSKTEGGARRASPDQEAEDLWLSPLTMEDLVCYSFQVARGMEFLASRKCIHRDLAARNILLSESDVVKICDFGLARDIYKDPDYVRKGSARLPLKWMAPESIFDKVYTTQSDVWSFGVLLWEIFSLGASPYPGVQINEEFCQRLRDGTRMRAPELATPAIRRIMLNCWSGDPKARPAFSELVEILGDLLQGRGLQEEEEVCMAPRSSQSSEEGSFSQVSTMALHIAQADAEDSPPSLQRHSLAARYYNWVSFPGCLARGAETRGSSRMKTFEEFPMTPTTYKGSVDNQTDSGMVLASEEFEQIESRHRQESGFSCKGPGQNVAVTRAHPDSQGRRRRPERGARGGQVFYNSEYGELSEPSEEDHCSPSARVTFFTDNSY
T3 sequence (Q02750 whole entry): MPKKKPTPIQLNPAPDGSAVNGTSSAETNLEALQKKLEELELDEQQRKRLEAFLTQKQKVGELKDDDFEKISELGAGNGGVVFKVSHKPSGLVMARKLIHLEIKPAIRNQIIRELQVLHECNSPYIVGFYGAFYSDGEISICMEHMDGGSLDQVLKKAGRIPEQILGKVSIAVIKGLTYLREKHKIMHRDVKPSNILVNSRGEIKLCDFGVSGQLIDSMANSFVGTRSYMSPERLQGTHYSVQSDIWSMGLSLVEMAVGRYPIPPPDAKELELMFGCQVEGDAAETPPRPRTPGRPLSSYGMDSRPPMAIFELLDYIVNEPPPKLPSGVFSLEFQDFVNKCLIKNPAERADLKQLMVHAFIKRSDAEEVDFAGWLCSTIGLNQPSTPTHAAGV

OCc1cccc(-c2c[nH]c3ncccc23)c1 [Compound P-0087]
≥ 5.00: [1] | [2] | [3] | [4] | [5]

Brc1ccc(/C=C\c2c[nH]c3ncccc23)cc1 [Compound P-0511]
≥ 5.00: [6] | [7]

O=C(c1ccccc1F)c1c[nH]c2ncc(-c3cccnc3)cc12 [Compound P-0708]
not listed: [1] | [3] | [4] | [5]
≥ 5.00: all other assays above
